Experimental data published in patent publication US9486422B2, “Small molecule inhibitors of Mcl-1 and the uses of thereof” (THE REGENTS OF THE UNIVERSITY OF MICHIGAN, priority 2011, dated 2016).

Assays:
Bcl-xL = Bcl-xL (Homo sapiens, UniProt Q07817, DEL45-85); assay: FP-based binding assay, Bcl-xL; conditions: competitive FP, FAM-BID 2 nM, protein 50 nM; read-out: Bcl-xL Ki ± SD
Mcl-1 [1] = biological target: T1, Mcl-1 (Homo sapiens, UniProt Q07820); assay: FP-based binding assay, Mcl-1; conditions: competitive FP
Target sequence in this assay (Q07820 171-327): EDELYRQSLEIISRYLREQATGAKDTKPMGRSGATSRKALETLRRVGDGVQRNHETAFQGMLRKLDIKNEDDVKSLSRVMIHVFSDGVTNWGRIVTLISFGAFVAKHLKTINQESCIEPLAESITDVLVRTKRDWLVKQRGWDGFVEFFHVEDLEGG

Bcl-w = biological target: T2, Bcl-w (Homo sapiens, UniProt Q92843); assay: FP-based binding assay, Bcl-w; conditions: competitive FP, FAM-BID 2 nM, protein 40 nM; read-out: Bcl-w Ki ± SD
T2 sequence (Q92843 1-155): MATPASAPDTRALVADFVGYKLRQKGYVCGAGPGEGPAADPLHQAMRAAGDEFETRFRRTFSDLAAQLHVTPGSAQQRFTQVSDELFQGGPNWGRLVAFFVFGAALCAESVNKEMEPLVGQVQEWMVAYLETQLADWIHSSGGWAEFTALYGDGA

A1/Bfl-1 = biological target: T3, A1/Bfl-1 (Homo sapiens, UniProt Q16548); assay: FP-based binding assay, A1/Bfl-1; conditions: competitive FP, FAM-BID 1 nM, protein 4 nM; read-out: A1/Bfl-1 Ki ± SD
T3 sequence (Q16548 1-151): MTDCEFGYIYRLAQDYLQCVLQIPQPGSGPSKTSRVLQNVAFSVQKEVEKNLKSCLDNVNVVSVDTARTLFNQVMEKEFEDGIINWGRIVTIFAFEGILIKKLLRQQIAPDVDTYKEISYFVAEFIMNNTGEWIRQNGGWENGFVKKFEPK

Bcl-2 = biological target: T4, Bcl-2 (Homo sapiens, UniProt P10415); assay: FP-based binding assay, Bcl-2; conditions: competitive FP, Flu-BID 2 nM, protein 60 nM; read-out: Bcl-2 Ki ± SD
T4 construct: His-tagged proteins containing; fused on or other part: A 16-residue segment of the flexible loop of Bcl-xL (BCL2L1, Q07817; given as residues 35 to 50) set into the Bcl-2 loop region; His tag with TEV site from the pHis-TEV vector

[2] = biological target: T5, cellular Mcl-1 protein (2LMP cell lysate) (Homo sapiens, UniProt Q07820); assay: Biotin-streptavidin pull-down with biotin-labeled Noxa BH3 peptide; type: binding
T5 construct: endogenous in cells; host or cells: 2LMP (subclone of MDA-MB-231) cell lysate
Protocol: Human breast cancer 2LMP cells, a subclone of the MDA-MB-231 cell line, were lysed in CHAPS buffer (10 mM HEPES (pH 7.4), 2.5 mM EDTA, 150 mM NaCl, 1.0% CHAP). Pre-cleared cell lysates were incubated with different concentrations of tested compounds, followed by incubation with biotinylated Noxa BH3 peptide (residues 18-43) and streptavidin-agarose beads to pull-down Mcl-1 protein bound to Noxa peptide. Beads were washed with CHAPS buffer, and Mcl-1 protein was eluted by boiling in SDS-PAGE sample buffer and analyzed by Western blotting using Mcl-1 antibody (Santa Cruz). DMSO alone was used as a control for nonspecific pull-down.

Mcl-1 [3] = biological target: T1, Mcl-1; conditions: cited from earlier work
Target sequence in this assay (Q07820 whole entry): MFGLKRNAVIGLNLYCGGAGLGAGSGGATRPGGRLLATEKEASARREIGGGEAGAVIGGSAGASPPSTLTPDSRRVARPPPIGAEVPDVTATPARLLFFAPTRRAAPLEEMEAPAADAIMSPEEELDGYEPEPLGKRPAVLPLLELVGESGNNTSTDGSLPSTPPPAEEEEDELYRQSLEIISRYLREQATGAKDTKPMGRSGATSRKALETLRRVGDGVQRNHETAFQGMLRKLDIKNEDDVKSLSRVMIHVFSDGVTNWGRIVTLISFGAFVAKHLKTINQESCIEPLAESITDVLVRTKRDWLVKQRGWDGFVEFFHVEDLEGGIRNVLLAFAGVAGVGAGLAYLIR

Chain of Bcl-xL (Q07817 other isoform, or with tags, fused parts or gaps DEL45-85): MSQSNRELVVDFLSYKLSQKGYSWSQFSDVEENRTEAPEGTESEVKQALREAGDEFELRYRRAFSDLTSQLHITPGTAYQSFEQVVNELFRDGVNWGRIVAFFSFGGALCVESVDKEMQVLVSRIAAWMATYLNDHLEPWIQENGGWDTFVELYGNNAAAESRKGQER
T4 sequence (P10415 with tags, fused parts or gaps with the stated changes): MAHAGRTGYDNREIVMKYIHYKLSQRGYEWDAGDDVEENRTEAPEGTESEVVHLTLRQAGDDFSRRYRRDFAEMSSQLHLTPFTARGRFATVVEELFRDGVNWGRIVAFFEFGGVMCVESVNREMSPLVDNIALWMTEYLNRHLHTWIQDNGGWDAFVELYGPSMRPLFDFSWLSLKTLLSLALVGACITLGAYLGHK
T5 sequence (Q07820 whole entry): as the sequence (Q07820 whole entry) above

COC(=O)CSc1cc(NS(=O)(=O)c2ccc(Br)cc2)c2ccccc2c1O [Compound 29, Methyl 2-((4-(4-bromophenylsulfonamido)-1-hydroxynaphthalen-2-yl)thio)acetate]
Ki (Bcl-xL): > 130 µM | IC50 (Mcl-1 [1]; Flu-BID 2 nM, Mcl-1 90 nM, read-out: Mcl-1 IC50 ± SD): 18.6 ± 4.93 µM | Ki (Mcl-1 [1]; Ki calculated from IC50, read-out: Mcl-1 Ki ± SD): 5.08 ± 1.35 µM | Ki (Bcl-w): > 90 µM | Ki (A1/Bfl-1): > 140 µM | Ki (Bcl-2): 23.8 ± 5.08 µM

O=C(O)CSc1cc(NS(=O)(=O)c2cccs2)c2ccccc2c1O [Compound 1, 2-((1-Hydroxy-4-(thiophene-2-sulfonamido)naphthalen-2-yl)thio)acetic acid]
Ki (Bcl-w): 37.5 ± 7.96 µM | Ki (A1/Bfl-1): 6.14 ± 1 µM | disruption of BL-Noxa/cellular Mcl-1 interaction, result in words [2]: effectively disrupted

CN(C)CC[C@H](CSc1ccccc1)Nc1ccc(S(=O)(=O)NC(=O)c2ccc(N3CCN(Cc4ccccc4-c4ccc(Cl)cc4)CC3)cc2)cc1[N+](=O)[O-] [ABT-737]
binding to Mcl-1, result in words (Mcl-1 [3]): fails to bind to Mcl-1
